Reference: the supplement of paper PMC12463676, “Small-molecule dissolution of stress granules by redox modulation benefits ALS models” (Nature Chemical Biology, 2025)

Key:
[1] = compound: NC(=O)CCCCC1CCSS1 [lipoamide]; test: thermal stability z-score vs DMSO; higher = more thermally stabilized by treatment; settings: HeLa, lipoamide concentration 100 µM
Description: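 Cellular thermal proteome profiling in HeLa cells. Cells were treated with 100 µM lipoamide for 1 h, with or without 1 mM arsenate for a further 1 h, then heated to ten temperatures (37-66.3 °C), and soluble protein was quantified by TMT mass spectrometry relative to 0.1% DMSO controls. The thermal stability score (sum of log2 fold changes minus the abundance score) was transformed to a z-score; mean of n = 3 experiments.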

[2] = compound: O=[As]([O-])(O)O.[K+] [potassium arsenate]; test: as above; settings: HeLa; arsenate concentration 1 mM
Description: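 Cellular thermal proteome profiling in HeLa cells treated with 1 mM arsenate for 1 h (DMSO pretreatment), heated to ten temperatures (37-66.3 °C). Soluble protein was quantified by TMT mass spectrometry relative to DMSO controls; the thermal stability score was transformed to a z-score; mean of n = 3 experiments.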

[3] = arsenate co-treatment: 1 mM arsenate 1 h
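Note: each temperature applied for 3 min, abundance score taken as mean log2 fold change at the two lowest temperatures, z-score obtained by mean subtraction and division by SD.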

UniProt Q9UET6, sequence (Q9UET6 whole entry): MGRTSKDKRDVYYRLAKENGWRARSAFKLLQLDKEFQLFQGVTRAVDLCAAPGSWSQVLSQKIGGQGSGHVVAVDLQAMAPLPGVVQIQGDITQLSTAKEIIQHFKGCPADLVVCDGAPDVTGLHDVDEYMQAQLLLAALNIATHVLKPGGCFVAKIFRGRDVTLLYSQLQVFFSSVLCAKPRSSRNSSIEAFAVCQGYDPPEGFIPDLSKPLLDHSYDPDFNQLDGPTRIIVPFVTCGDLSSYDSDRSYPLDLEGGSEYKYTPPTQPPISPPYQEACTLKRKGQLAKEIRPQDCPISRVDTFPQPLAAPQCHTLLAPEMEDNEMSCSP
UniProt Q6P4H8, sequence (Q6P4H8 whole entry): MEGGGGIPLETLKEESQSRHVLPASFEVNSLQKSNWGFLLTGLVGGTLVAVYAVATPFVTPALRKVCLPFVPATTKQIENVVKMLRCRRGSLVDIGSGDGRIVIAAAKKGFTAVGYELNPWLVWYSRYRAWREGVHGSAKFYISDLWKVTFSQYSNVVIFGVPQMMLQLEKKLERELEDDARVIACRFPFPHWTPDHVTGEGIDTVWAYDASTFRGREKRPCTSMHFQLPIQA
UniProt Q14680, sequence (Q14680 whole entry, looked up): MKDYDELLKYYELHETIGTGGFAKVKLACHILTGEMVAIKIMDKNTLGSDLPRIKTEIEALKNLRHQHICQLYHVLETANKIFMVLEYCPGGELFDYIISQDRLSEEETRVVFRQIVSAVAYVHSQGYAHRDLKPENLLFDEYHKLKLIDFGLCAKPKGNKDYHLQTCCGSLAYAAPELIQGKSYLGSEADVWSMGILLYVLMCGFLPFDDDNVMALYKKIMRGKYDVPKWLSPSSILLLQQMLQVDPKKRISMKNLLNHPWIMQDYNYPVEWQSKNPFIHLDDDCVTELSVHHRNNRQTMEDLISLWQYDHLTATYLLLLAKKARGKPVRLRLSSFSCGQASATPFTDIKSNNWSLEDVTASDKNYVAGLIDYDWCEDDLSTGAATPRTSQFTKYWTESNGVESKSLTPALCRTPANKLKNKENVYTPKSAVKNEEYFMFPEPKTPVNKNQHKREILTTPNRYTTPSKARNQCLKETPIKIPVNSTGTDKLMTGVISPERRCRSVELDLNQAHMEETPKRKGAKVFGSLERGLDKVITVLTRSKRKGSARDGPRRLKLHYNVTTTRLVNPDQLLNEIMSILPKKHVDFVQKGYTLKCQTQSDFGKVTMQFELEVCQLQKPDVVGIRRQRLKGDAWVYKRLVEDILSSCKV
UniProt O60256, sequence (O60256 whole entry): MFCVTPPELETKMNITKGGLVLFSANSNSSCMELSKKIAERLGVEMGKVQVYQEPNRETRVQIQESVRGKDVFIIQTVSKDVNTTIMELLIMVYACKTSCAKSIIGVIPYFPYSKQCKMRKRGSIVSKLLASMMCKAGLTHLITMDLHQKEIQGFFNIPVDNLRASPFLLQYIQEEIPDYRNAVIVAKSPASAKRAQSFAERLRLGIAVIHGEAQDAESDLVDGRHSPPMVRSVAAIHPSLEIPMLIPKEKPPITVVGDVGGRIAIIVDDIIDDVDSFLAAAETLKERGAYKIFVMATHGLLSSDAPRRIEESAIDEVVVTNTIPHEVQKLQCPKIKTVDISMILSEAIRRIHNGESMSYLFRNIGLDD
UniProt Q7Z5U6, sequence (Q7Z5U6 whole entry): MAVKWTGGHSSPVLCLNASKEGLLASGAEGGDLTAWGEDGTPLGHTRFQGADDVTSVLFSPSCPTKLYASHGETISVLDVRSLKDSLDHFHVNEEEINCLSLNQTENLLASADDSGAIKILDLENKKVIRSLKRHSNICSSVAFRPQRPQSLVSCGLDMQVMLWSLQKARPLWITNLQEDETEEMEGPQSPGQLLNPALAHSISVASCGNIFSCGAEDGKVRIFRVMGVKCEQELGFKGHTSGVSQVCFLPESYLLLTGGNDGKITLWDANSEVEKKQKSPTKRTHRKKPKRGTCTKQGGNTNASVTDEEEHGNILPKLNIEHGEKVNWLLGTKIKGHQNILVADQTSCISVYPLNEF
UniProt Q6NUQ1, sequence (Q6NUQ1 whole entry): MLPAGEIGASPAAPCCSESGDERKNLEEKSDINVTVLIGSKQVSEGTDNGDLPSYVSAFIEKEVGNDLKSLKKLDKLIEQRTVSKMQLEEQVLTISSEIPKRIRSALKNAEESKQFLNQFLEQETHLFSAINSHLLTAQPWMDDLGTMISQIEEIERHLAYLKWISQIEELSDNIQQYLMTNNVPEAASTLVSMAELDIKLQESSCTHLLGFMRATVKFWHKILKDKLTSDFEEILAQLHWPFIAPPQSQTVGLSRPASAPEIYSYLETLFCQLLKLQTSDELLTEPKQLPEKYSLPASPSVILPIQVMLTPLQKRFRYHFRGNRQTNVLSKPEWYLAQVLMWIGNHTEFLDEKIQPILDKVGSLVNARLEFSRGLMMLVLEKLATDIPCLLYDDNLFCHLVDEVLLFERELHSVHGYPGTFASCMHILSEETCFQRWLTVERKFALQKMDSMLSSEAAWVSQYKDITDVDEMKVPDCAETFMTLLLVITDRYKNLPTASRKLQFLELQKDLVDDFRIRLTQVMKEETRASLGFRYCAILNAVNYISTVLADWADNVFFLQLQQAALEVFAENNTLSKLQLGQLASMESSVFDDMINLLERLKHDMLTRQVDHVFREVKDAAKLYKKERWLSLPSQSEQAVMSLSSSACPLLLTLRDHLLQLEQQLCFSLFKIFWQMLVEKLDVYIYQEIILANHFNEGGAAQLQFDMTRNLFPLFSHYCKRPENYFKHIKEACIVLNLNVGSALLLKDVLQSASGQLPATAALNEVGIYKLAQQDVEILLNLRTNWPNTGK
UniProt Q9H694, sequence (Q9H694 whole entry): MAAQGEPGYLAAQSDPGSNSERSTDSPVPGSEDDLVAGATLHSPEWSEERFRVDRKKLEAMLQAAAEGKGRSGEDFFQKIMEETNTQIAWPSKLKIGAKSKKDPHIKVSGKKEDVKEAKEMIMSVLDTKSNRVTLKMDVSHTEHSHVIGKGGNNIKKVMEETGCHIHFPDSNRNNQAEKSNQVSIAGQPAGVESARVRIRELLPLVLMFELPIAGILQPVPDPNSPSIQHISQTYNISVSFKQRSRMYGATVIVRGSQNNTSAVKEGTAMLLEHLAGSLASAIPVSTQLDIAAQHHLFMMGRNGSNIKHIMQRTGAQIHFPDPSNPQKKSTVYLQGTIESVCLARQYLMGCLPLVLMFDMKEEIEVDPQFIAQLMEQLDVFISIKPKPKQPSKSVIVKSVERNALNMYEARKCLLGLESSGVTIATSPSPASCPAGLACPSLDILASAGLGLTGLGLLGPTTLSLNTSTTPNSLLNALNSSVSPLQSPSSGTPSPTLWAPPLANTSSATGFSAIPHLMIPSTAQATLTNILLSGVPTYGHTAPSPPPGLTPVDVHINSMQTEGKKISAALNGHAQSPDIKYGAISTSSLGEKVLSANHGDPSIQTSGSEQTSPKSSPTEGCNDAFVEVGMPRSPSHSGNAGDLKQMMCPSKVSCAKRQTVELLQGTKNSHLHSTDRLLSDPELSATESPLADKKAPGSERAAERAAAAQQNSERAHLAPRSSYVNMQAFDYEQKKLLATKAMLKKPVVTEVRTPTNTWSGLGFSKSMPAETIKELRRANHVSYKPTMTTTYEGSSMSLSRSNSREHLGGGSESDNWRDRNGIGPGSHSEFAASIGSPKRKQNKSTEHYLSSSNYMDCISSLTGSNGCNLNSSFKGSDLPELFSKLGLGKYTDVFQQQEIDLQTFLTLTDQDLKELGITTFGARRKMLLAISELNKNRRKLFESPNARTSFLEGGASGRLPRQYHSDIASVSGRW
UniProt Q86SR1, sequence (Q86SR1 whole entry): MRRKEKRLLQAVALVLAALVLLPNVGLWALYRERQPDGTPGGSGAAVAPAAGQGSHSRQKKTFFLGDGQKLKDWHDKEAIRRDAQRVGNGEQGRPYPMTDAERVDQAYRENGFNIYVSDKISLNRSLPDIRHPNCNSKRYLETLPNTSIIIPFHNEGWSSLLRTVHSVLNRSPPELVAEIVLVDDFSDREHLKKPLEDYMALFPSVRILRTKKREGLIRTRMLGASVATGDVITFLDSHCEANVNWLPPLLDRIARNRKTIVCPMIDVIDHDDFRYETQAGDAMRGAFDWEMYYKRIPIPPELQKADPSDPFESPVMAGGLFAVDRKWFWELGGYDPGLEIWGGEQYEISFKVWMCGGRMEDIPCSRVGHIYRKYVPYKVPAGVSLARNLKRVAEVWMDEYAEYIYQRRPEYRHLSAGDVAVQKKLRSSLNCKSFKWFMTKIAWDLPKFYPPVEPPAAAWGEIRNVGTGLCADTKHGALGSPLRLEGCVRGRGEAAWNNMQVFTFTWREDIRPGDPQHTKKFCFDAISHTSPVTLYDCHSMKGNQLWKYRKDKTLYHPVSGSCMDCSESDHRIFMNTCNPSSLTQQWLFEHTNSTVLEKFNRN
UniProt Q86VW0, sequence (Q86VW0 whole entry): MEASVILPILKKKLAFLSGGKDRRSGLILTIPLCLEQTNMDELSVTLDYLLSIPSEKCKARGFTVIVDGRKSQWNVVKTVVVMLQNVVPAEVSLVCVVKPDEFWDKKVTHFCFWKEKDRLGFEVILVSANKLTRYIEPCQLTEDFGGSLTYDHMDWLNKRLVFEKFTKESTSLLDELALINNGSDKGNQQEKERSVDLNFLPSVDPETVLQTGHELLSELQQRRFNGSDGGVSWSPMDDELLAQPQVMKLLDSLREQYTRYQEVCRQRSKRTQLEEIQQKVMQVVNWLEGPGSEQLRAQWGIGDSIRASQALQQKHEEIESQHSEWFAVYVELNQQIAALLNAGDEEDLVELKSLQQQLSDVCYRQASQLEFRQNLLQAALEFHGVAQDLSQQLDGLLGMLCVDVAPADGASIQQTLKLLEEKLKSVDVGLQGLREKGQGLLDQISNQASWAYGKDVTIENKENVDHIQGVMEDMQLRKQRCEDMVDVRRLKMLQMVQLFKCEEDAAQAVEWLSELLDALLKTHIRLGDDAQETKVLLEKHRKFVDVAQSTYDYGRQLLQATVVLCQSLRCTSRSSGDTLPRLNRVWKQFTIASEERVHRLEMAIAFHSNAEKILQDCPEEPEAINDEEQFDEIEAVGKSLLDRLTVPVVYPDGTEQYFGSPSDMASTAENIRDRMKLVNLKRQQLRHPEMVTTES

Row | Target | thermal stability z-score [1, 3] | thermal stability z-score ([1]; arsenate co-treatment: none) | thermal stability z-score [2]
1 | RECQL (UniProt P46063) | 1.17 | 0.899 | -1.22
2 | MTX3 (UniProt Q5HYI7) | 0.929 | 0.179 | -0.0757
3 | SRP14 (UniProt P37108) | -0.152 | -0.0661 | -0.436
4 | C16ORF62 (UniProt Q7Z3J2) | 0.411 | 0.213 | 0.119
5 | CDC40 (UniProt O60508) | -0.117 | 0.182 | 0.0978
6 | BICC1 (UniProt Q9H694) | 0.291 | 0.353 | -0.19
7 | PRKCSH (UniProt P14314) | -2.77 | -2.47 | 0.768
8 | OXR1 (UniProt Q8N573) | 0.209 | 0.17 | 0.101
9 | MTAP (UniProt Q13126) | 0.145 | -1.41 | -1.77
10 | CUL7 (UniProt Q14999) | 0.0636 | 0.0136 | -0.113
11 | COPRS (UniProt Q9NQ92) | 0.227 | 0.791 | -0.822
12 | SLC16A3 (UniProt O15427) | 0.645 | 0.712 | 0.351
13 | FTSJ1 (UniProt Q9UET6) | -0.787 | -0.171 | -0.793
14 | STIM2 (UniProt Q9P246) | -0.102 | -0.0704 | -0.103
15 | FAM173B (UniProt Q6P4H8) | -0.478 | 1.31 | -0.0461
16 | GSTT1 (UniProt P30711) | 1.07 | 0.0783 | -0.279
17 | MRPL21 (UniProt Q7Z2W9) | -0.754 | -0.591 | 0.0405
18 | GTPBP3 (UniProt Q969Y2) | 0.357 | 0.272 | 0.354
19 | WDR53 (UniProt Q7Z5U6) | 0.164 | 0.989 | 1.07
20 | UBE2O (UniProt Q9C0C9) | 0.0608 | 0.277 | 0.509
21 | SMG5 (UniProt Q9UPR3) | -0.0554 | 0.0814 | -0.104
22 | CS (UniProt O75390) | -0.341 | 0.0055 | 0.561
23 | ZC3HC1 (UniProt Q86WB0) | -0.377 | 0.164 | -0.364
24 | PARN (UniProt O95453) | 0.181 | -0.273 | 0.95
25 | ACTG1 (UniProt P63261) | -0.494 | -0.484 | -0.572
26 | RPL6 (UniProt Q02878) | 0.349 | 0.0467 | -0.92
27 | AARSD1 (UniProt Q9BTE6) | 0.0117 | 0.0955 | 0.428
28 | RINT1 (UniProt Q6NUQ1) | -0.699 | -0.111 | 0.354

Row | Target | thermal stability z-score [1, 3] | thermal stability z-score ([1]; arsenate co-treatment: none) | thermal stability z-score [2]
29 | NAXE (UniProt Q8NCW5) | 0.137 | 0.266 | -0.422
30 | ARFIP2 (UniProt P53365) | -0.0772 | -0.0355 | 0.108
31 | MDN1 (UniProt Q9NU22) | 0.0494 | 0.0439 | 0.0865
32 | PRPSAP2 (UniProt O60256) | -0.04 | -0.392 | -0.637
33 | SH3BP5 (UniProt O60239) | 0.466 | -0.17 | -0.00483
34 | LUZP1 (UniProt Q86V48) | -0.424 | -0.079 | -0.191
35 | NDC1 (UniProt Q9BTX1) | 0.0748 | 0.0634 | 0.177
36 | WDR7 (UniProt Q9Y4E6) | -0.338 | 0.149 | -0.351
37 | GALNT10 (UniProt Q86SR1) | -0.462 | 0.0888 | 0.557
38 | RCL1 (UniProt Q9Y2P8) | 1.4 | 0.192 | 2.29
39 | LIN9 (UniProt Q5TKA1) | -0.0678 | -0.263 | -0.121
40 | PRRC2A (UniProt P48634) | 0.431 | 0.205 | -0.13
41 | ECH1 (UniProt Q13011) | -0.108 | 0.163 | -0.0954
42 | MELK (UniProt Q14680) | -0.0697 | -0.0146 | -0.32
43 | ZNF207 (UniProt O43670) | 0.132 | -0.22 | 0.167
44 | TRIOBP (UniProt Q9H2D6) | -0.339 | -0.147 | 0.379
45 | TTC13 (UniProt Q8NBP0) | -0.787 | -1.08 | 0.595
46 | BCAT2 (UniProt O15382) | 0.516 | 0.0921 | 1.1
47 | TRA2B (UniProt P62995) | 2.37 | -0.56 | -0.649
48 | TPD52 (UniProt P55327) | 2.04 | 2.1 | 1.35
49 | TTYH3 (UniProt Q9C0H2) | 0.027 | 0.0475 | -0.648
50 | YARS (UniProt P54577) | 0.161 | 0.213 | 2.64
51 | CRKL (UniProt P46109) | 0.0621 | 0.384 | 0.656
52 | XPO1 (UniProt O14980) | 0.211 | 0.4 | 1.4
53 | COG1 (UniProt Q8WTW3) | -0.441 | -0.42 | 0.183
54 | ATP6V1B2 (UniProt P21281) | -0.0948 | -0.684 | -0.745
55 | SESTD1 (UniProt Q86VW0) | 0.202 | 0.128 | 0.352
